Values quoted from earlier work as cited in paper PMC7436013, “Design, Synthesis, and Biological Investigation of Novel Classes of 3-Carene-Derived Potent Inhibitors of TDP1” (Molecules, 2020).

Experiments:
TDP1 = tested on: TDP1; design: method as in PMID 31619021, PMID 30396105, PMID 30142660, PMID 29562592, PMID 27658793; settings: Figure 1; ref [10]-[13],[16]-[18],[20],[22]; read-out: IC50 of known TDP1 inhibitors; cited from earlier work
Krebs-2 ascites = tested on: Krebs-2 ascites; design: method as in PMID 31878088; settings: in vivo tumor model, ref [17]; cited from earlier work

CC(C)=CCC/C(C)=C/COc1ccc2c(-c3ccc(F)cc3)cc(=O)oc2c1 [compound 5]
IC50 (TDP1): 620 nM | effect on the antitumor effect of Tpc (Krebs-2 ascites): significant increase in the antitumor effect of Tpc
